In one test the target is T1, FXR (Homo sapiens, UniProt Q96RI1).
T1 sequence (Q96RI1 262-486 limits assumed): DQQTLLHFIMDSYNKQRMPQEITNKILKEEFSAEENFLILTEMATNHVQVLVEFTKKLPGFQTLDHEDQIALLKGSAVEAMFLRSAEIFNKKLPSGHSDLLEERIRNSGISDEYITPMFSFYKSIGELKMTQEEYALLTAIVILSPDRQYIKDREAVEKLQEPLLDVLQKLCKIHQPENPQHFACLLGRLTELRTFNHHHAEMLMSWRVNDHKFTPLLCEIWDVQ
Briefly: FXR reporter gene expression test (dual luciferase, FXR Gal4 reporter in HepG2 cells). The class given is cell-based. To be noted: HepG2 cells transiently transfected with FXR Gal4 reporter, 18 hours. From the text:
FXR Reporter Gene Expression Test
To analyze the effect of testing compounds on FXR-regulated gene expression, we used Promega's dual luciferase assay system (Promega #E1980) to detect the effect of the compounds on the FXR reporter gene in HepG2 hepatoma cell line (ATCC #HB-8065), which was transiently transfected with the FXR Gal4 reporter gene fragment. Specific experimental methods are as follows:
1. HepG2 Cell Culture and Maintenance
Cells were digested and cells with appropriate density were grown in 10 mL complete medium and then cultivated for 24 hours under 37° C., 5% CO2 humidity conditions.
2. Cell planting and transfection. Transfection reagent was Fugene HD (Promega#E231A)
(1) The transfection mixture was prepared according to the following table
(2) The mixture in the tube was vigorously mixed and incubated at room temperature for 15 minutes;
(3) The cells were digested in the culture dish and counted;
(4) The cell suspension was diluted to the desired volume of 600,000/mL (96-well plates 100 μL/well);
(5) The required volume of the transfection mixture was added to the cell suspension, followed by plating at 100 μL/well;
(6) Incubated for 24 hours under 37° C., 5% CO2 humidity conditions.
3. Treatment of the Compound
(1) 10 mM of mother liquor of the compound was prepared and then serially diluted 3 times with DMSO;
(2) 10 μL of compound was added to 90 μL of complete medium (10×);
(3) 5 μL of the solution of the compound (21×) was added to each well;
(4) Incubated for 18 hours under 37° C., 5% CO2 humidity conditions.
The firefly luciferase and the renilla luciferase signal (Promega #E1980) were detected by Promega's dual-luciferase assay system.
(2) Calculating the agonist rate
Agonist rate=(X−Min)/(Max−Min)*100% • X represents the F/R value of each concentration; • Min represents the F/R value without adding compound; • Max represents the F/R value of the reference compound.
(3) EC50 was calculated according to GraphPrism 5.0
For orientation: In a reporter assay the amount or activity of a reporter protein is the signal.

A further test addresses T2, FXR receptor (Homo sapiens, UniProt Q96RI1).
T2 construct: Prepared 2× GST-labeled FXR-LBD/anti-GST Eu mixture to the required volume, the concentration of GST-FXR-LBD was 6 nM; purchased Life Technology Invitrogen PV4835
T2 sequence (Q96RI1 262-486 limits assumed): T1 sequence (Q96RI1 262-486 limits assumed)
T2 sequence (Q15788 676-700 partner limits assumed): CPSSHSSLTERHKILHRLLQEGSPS
Description: FXR receptor binding activity assay (TR-FRET; GST-FXR-LBD / SRC1 fragment). The following applies: FXR-LBD binding to SRC1 fragment, agonist rate. The format is biochemical. From the text: FXR Receptor Binding Activity Assay (Time-Resolved Fluorescence Detection Method TR-FRET Method)
To test the effect of the present compounds on FXR receptor binding, we selected the commercial FXR receptor binding activity assay kit to test the effect of the compounds on FXR and its binding protein fragments (LBD structural domain binds to SRC1 fragment) (kit supplier: Life Technology Invitrogen Catalog: PV4835; cisbio Catalog: 610SAXLA and 61GSTKLA). Specific method was described in the kit instructions. The operation was as follows:
1. Prepared 2× GST-labeled FXR-LBD/anti-GST Eu mixture to the required volume, the concentration of GST-FXR-LBD was 6 nM, Eu was 50 nL/well.
2. Prepared 2× biotin-labeled SRC1/[…] (SA-APC) mixture to the required volume, the concentration of SRC1 was 1000 nM, and […] was 50 nL/well.
3. 2× GST-FXR/Eu and SRC1/SA-APC were mixed in a proportion of 1:1.
4. 20 μL of a mixture of GST-FXR/Eu and SRC1/SA-APC was added to a 384-well plate containing the compounds to be tested.
5. Centrifuged for 1 minute at 1000 rpm; incubated for 180 minutes at room temperature.
6. Time-resolved fluorescence detection: EnVision reader.
(1) the value at 665 nm divided by the value at 615 nm;
(2) calculating the agonist rate
Agonist rate=(X−Min)/(Max−Min)*100% • X represents the 665/615 value for each concentration; • Min represents the 665/615 value without adding compound; • Max represents the 665/615 value of the reference compound.

Regarding `CC[C@H]1[C@@H](O)C2C3CCC([C@H](C)CCC(=O)NC#N)[C@@]3(C)CCC2[C@@]2(C)CC[C@@H](O)C[C@@H]12` (stereo partly drawn) [Example 3, (4R)-N-cyano-4-((3R, 5S, 6R, 7R, 10S, 13R)-6-ethyl-3,7-dihydroxy-10,13-dimethylhexadecahydro-1H-cyclopenta[a]phenanthrene-17-yl)pentanamide], the EC50 – broadly, the concentration giving half of the maximal effect – at FXR was 2530 nM; on FXR receptor, 16 nM.

With `C[C@H](CC1SC(=O)NC1=O)C1CCC2C3C(CC[C@@]21C)[C@@]1(C)CC[C@@H](O)C[C@H]1C[C@H]3O` (stereo partly drawn) [Example 15-α, 5-((2R)-2-((3R,5 S,7R,10S,13R)-3,7-dihydroxy-10,13-dimethylhexadecahydro-1H-cyclopenta[a]phenanthrene-17-yl)propyl)thiazolidine-2,4-dione], at FXR receptor, the EC50 worked out at 143 nM.

`CC[C@H]1[C@@H](O)C2C3CCC([C@H](C)CCC(=O)NCS(=O)(=O)O)[C@@]3(C)CCC2[C@@]2(C)CC[C@@H](O)C[C@@H]12` (stereo partly drawn) [Example 5, ((4R)-4-((3R,5S,6R,7R,10S,13R)-6-ethyl-3,7-dihydroxy-10,13-dimethylhexadecahydro-1H-cyclopenta[a]phenanthrene-17-yl)pentanoylamino) methanesulfonic acid] had an EC50 at FXR receptor of 31 nM.

On to `CC[C@H]1[C@@H](O)C2C3CCC([C@H](C)CCc4n[nH]c(=O)o4)[C@@]3(C)CCC2[C@@]2(C)CC[C@@H](O)C[C@@H]12` (stereo partly drawn) [Example 10, 5-((3R)-3-((3R,5S,6R,7R,10S,13R)-6-ethyl-3,7-dihydroxy-10,13-dimethylhexadecane-1H-cyclopenta[a]phenanthrene-17-yl)butyl)-1,3,4-oxadiazol-2 (3H) -one], for which the EC50 worked out at 1400 nM on FXR and 61 nM at FXR receptor.

For `CC[C@@H]1[C@@H]2[C@@H](F)[C@H](O)CC[C@]2(C)C2CC[C@@]3(C)C(CCC3[C@H](C)CCC(=O)O)C2[C@@H]1O` (stereo partly drawn) [Example 1, (4R)-4-((3R, 4R, 5S, 6R, 7R, 10R, 13R)-6-ethyl-4-fluoro-3,7-dihydroxy-10,13-dimethylhexadecahydro-1H-cyclopenta[a]phenanthrene-17-yl)pentanoic acid], the EC50 at FXR came to 2600 nM; on FXR receptor it was 214 nM.

Take `CC[C@H]1[C@@H](O)C2C3CCC([C@H](C)CCc4noc(=O)[nH]4)[C@@]3(C)CCC2[C@@]2(C)CC[C@@H](O)C[C@@H]12` (stereo partly drawn) [Example 12, 3-((3R)-3-((3R, 5S, 6R, 7R, 10S, 13R)-6-ethyl-3,7-dihydroxy-10,13-dimethylhexadecahydro-1H-cyclopenta[a]phenanthrene-17-yl)butyl)-1,2,4-oxadiazol-5(4H)-one]: the concentration giving a half-maximal response (EC50) on FXR was 1360 nM; on FXR receptor it was 52 nM.

As to `CC[C@H]1[C@@H](O)C2C3CCC([C@H](C)CCC(=O)NCCP(=O)(O)O)[C@@]3(C)CCC2[C@@]2(C)CC[C@@H](O)C[C@@H]12` (stereo partly drawn) [Example 7, (2-((4R)-4-((3R,5 S,6R,7R,10S,13R)-6-ethyl-3,7-dihydroxy-10,13-dimethylhexadecahydro-1H-cyclopenta[a]phenanthrene-17-yl)pentanoylamino)ethyl) phosphonic acid], at FXR receptor, the response was half-maximal at 552 nM (EC50). This lies in the sub-micromolar range.

In the case of `CC[C@H]1[C@@H](O)C2C3CCC([C@H](C)CCC(=O)NOCCO)[C@@]3(C)CCC2[C@@]2(C)CC[C@@H](O)C[C@@H]12` (stereo partly drawn) [Example 8, (4R)-4-((3R, 5S, 6R, 7R, 10S, 13R)-6-ethyl-3,7-dihydroxy-10,13-dimethylhexadecahydro-1H-cyclopenta[a]phenanthrene-17-yl)-N-(2-hydroxyethoxy)pentanamide], the EC50 at FXR turned out to be 3370 nM; on FXR receptor it was 228 nM.

As to `CC[C@H]1[C@@H](O)C2C3CCC([C@H](C)CCC(=O)NO)[C@@]3(C)CCC2[C@@]2(C)CC[C@@H](O)C[C@@H]12` (stereo partly drawn) [Example 2, (4R)-4-((3R,5S,6R,7R,10S,13R)-6-ethyl-3,7-dihydroxy-10,13-dimethylhexadecahydro-1H-cyclopenta[a]phenanthrene-17-yl)-N-hydroxypentanamide], the EC50 on FXR turned out to be 3390 nM; at FXR receptor, 167 nM.

Consider `CC[C@H]1[C@@H](O)C2C3CCC([C@H](C)CC4SC(=O)NC4=O)[C@@]3(C)CCC2[C@@]2(C)CC[C@@H](O)C[C@@H]12` (single isomer, unassigned) [Example 14-α], for which the concentration giving a half-maximal response (EC50) is 63 nM at FXR and 13 nM on FXR receptor.

On to `C[C@H](CC1SC(=O)NC1=O)C1CCC2C3C(CC[C@@]21C)[C@@]1(C)CC[C@@H](O)C[C@H]1C[C@H]3O` (stereo partly drawn) [Example 15-β, 5-((2R)-2-((3R,5 S,7R,10S,13R)-3,7-dihydroxy-10,13-dimethylhexadecahydro-1H-cyclopenta[a]phenanthrene-17-yl)propyl)thiazolidine-2,4-dione], for which the EC50 at FXR was 3370 nM; on FXR receptor it was 312 nM.

With `CC[C@H]1[C@@H](O)C2C3CCC([C@H](C)CCc4nnc[nH]4)[C@@]3(C)CCC2[C@@]2(C)CC[C@@H](O)C[C@@H]12` (stereo partly drawn) [Example 11, (3R,5S,6R,7R,10S,13R)-17-((R)-4-(4H-1,2,4-triazol-3-yl)butan-2-yl)-6-ethyl-10,13-dimethylhexadecahydro-1H-cyclopenta[a] phenanthrene-3,7-diphenol], the concentration giving a half-maximal response (EC50) on FXR is 5200 nM; on FXR receptor, 366 nM.

In turn, `CC[C@H]1[C@@H](O)C2C3CCC([C@H](C)CCC(=O)NCP(=O)(O)O)[C@@]3(C)CCC2[C@@]2(C)CC[C@@H](O)C[C@@H]12` (stereo partly drawn) [Example 6, (((4R)-4-((3R,5S,6R,7R,10S,13R)-6-ethyl-3,7-dihydroxy-10,13-dimethylhexadecahydro-1H-cyclopenta[a]phenanthrene-17-yl)pentanoylamino)methyl)phosphonic acid] yielded a half-maximal effective concentration (EC50) on FXR receptor of 1270 nM.

On FXR receptor, `CCOC(=O)c1nnc(CC[C@@H](C)C2CCC3C4C(CC[C@@]32C)[C@@]2(C)CC[C@@H](O)C[C@H]2[C@@H](CC)[C@H]4O)o1` (stereo partly drawn) [Example 13-ii] returned an EC50 of 70 nM.

On to `CC[C@H]1[C@@H](O)C2C3CCC([C@H](C)CCc4nnc(C(=O)O)o4)[C@@]3(C)CCC2[C@@]2(C)CC[C@@H](O)C[C@@H]12` (stereo partly drawn) [Example 13, 5-((3R)-3-((3R, 5S, 6R, 7R, 10S,13R)-6-ethyl-3,7-dihydroxy-10,13-dimethylhexadecahydro-1H-cyclopenta[a]phenanthrene-17-yl)butyl) -1,3,4-oxadiazole-2-carboxylic acid], for which the half-maximal effective concentration (EC50) on FXR was determined as 5200 nM; on FXR receptor, 283 nM.

As to `CC[C@H]1[C@@H](O)C2C3CCC([C@H](C)CCC(=O)NOC)[C@@]3(C)CCC2[C@@]2(C)CC[C@@H](O)C[C@@H]12` (stereo partly drawn) [Example 4, (4R)-4-((3R,5S,6R,7R,10S,13R)-6-ethyl-3,7-dihydroxy-10,13-dimethylhexadecahydro-1H-cyclopenta[a]phenanthrene-17-yl)-N-methoxypentanamide], the EC50 at FXR amounted to 1060 nM; on FXR receptor, 54 nM.

The values are drawn from patent US20180148470A1, “CHOLIC ACID DERIVATIVE, AND PREPARATION METHOD AND MEDICAL USE THEREOF” (Jiangsu Hansoh Pharmaceutical Group Co., Ltd., priority 2015, published 2018).
